Holding throughout (assay type): cell-based
The subject of one test is RSV A2. Briefly: RSV NHBE EC50 (RSV A2 antiviral assay in normal human bronchial epithelial cells). The settings on record: NHBE cells, RSV A2, 4 days, read-out: RSV NHBE EC50.
The subject of another test is HRV16. The experiment in a line: HRV16 HELA EC50 (cytopathic effect in H1-HeLa cells). In short, it runs like this:
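Read-out is luminescent cell viability (CellTiter-Glo) after 96 h of infection at 33 °C, scaled between uninfected and infected-untreated wells. Before infection with titrated virus, compounds went onto H1-HeLa cells as triplicate 3-fold dilution series.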

In another test the test system is RSV strain A2. The experiment in a line: RSV HEp-2 EC50 (infectious cytopathic cell protection assay). The settings on record: HEp-2 cells, RSV A2, 4 days, read-out: RSV HEp-2 EC50. In short, it runs like this:
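Percent inhibition of RSV-induced cytopathic effect came from remaining cell viability (CellTiter-Glo luminescence) after 4 days at 37° C. Compounds in 3-fold serial dilutions were exposed to an infectious mix of titered A2 virus and HEp-2 cells at 50,000/ml, with 0% and 100% inhibition control standards.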

The test system of a further test is DENV2 replicon. Briefly: DENV-2 Huh-7 Rep EC50 (replicon luminescence). Conditions: Huh-7 replicon cells, 48 hours, read-out: DENV-2 Huh-7 Rep EC50. In short, it runs like this: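 EC50 derived from luminescence dose-response, normalised to DMSO-only 0% inhibition wells, after 1.5 h with EnduRen substrate. Compounds were first exposed for 48 h at 37° C to DENV2 replicon Huh-7 cells (5,000/well).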

[1] abbreviates: human respiratory syncytial virus, NHBE, 96 h.
The mark [2] stands for this setting: 96 h, H1-HeLa cells, 33° C., read-out: HRV16 HELA EC50.
[3] abbreviates: human respiratory syncytial virus, HEp-2, 96 h.
The mark [4] stands for this setting: Dengue virus, DENV2, Huh-7, 48 h.

Where two headings read alike, the source gives them in different places. Bounds are passed on as bounds.

`C[C@H](NP(=O)(OC[C@@]1(C#N)O[C@@H](c2ccc3c(N)ncnn23)[C@H](O)[C@@H]1O)Oc1ccccc1)C(=O)OC1CCCCC1` (stereo partly drawn) [Example 4, (2S)-cyclohexyl 2-(((((2R,3S,4R,5S)-5-(4-aminopyrrolo[2,1-f][1,2,4]triazin-7-yl)-2-cyano-3,4-dihydroxytetrahydrofuran-2-yl)methoxy)(phenoxy)phosphoryl)amino)propanoate]: the values for the EC50 in the test with RSV A2 (setting [1]), in the test with HRV16 (setting [2]) and in the test on RSV strain A2 (setting [3]) were 76 nM, 510 nM and 96 nM, respectively.

Turning to `C[C@H](NP(=O)(OC[C@@]1(C#N)O[C@@H](c2ccc3c(N)ncnn23)[C@H](O)[C@@H]1O)Oc1ccccc1)C(=O)OCCC(C)(C)C` (stereo partly drawn) [Example 251, 3,3-dimethylbutyl ((((2R,3S,4R,5S)-5-(4-aminopyrrolo[2,1-f][1,2,4]triazin-7-yl)-2-cyano-3,4-dihydroxytetrahydrofuran-2-yl)methoxy)(phenoxy)phosphoryl)-L-alaninate], the EC50 with DENV2 replicon (setting [4]) is 3530 nM; in the test with RSV strain A2 (setting [3]), 8 nM.

On to `CCC(C)(C)COC(=O)[C@H](C)NP(=O)(OC[C@@]1(C#N)O[C@@H](c2ccc3c(N)ncnn23)[C@H](O)[C@@H]1O)Oc1ccccc1` (stereo partly drawn) [Example 254, 2,2-dimethylbutyl ((((2R,3S,4R,5S)-5-(4-aminopyrrolo[2,1-f][1,2,4]triazin-7-yl)-2-cyano-3,4-dihydroxytetrahydrofuran-2-yl)methoxy)(phenoxy)phosphoryl)-L-alaninate], for which the EC50 in the test with RSV A2 (setting [1]) came out at 46 nM; in the test on DENV2 replicon (setting [4]) it was 13000 nM; with RSV strain A2 (setting [3]), 17 nM.

Turning to `C[C@H](NP(=O)(OC[C@@]1(C#N)O[C@@H](c2ccc3c(N)ncnn23)[C@H](O)[C@@H]1O)Oc1ccccc1)C(=O)OCCC(C)(C)C` (single isomer, unassigned) [Example 252], the EC50 in the test on RSV A2 stood at 31 nM; with DENV2 replicon, 7000 nM; in the test with RSV strain A2 (setting [3]), 26 nM.

Take `CCOC(=O)[C@H](C)N[P@](=O)(OC[C@@]1(C#N)O[C@@H](c2ccc3c(N)ncnn23)[C@H](O)[C@@H]1O)Oc1ccccc1` [Example 29, Ethyl ((S)-(((2R,3S,4R,5S)-5-(4-aminopyrrolo[2,1-f][1,2,4]triazin-7-yl)-2-cyano-3,4-dihydroxytetrahydrofuran-2-yl)methoxy)(phenoxy)phosphoryl)-L-alaninate]: the EC50 in the test with RSV A2 (setting [1]) came out at 932 nM; with HRV16 (setting [2]) it was 678 nM; in the test with DENV2 replicon (setting [4]), 36100 nM; in the test with RSV strain A2 (setting [3]) it was 91 nM.

Take `COC(=O)[C@H](C)N[P@](=O)(OC[C@@]1(C#N)O[C@@H](c2ccc3c(N)ncnn23)[C@H](O)[C@@H]1O)Oc1ccccc1` [Example 52, methyl ((S)-(((2R,3S,4R,5S)-5-(4-aminopyrrolo[2,1-f][1,2,4]triazin-7-yl)-2-cyano-3,4-dihydroxytetrahydrofuran-2-yl)methoxy)(phenoxy)phosphoryl)-L-alaninate]: the EC50 is 252 nM in the test with RSV A2 (setting [1]), 1250 nM in the test on HRV16 (setting [2]), > 47000 nM in the test on DENV2 replicon (setting [4]) and 94 nM in the test on RSV strain A2 (setting [3]).

For `CCC(CC)COC(=O)[C@H](CC)NP(=O)(OC[C@@]1(C#N)O[C@@H](c2ccc3c(N)ncnn23)[C@H](O)[C@@H]1O)Oc1ccccc1` (mixture of isomers) [Example 88, (2S)-2-ethylbutyl 2-(((((2R,3S,4R,5S)-5-(4-aminopyrrolo[2,1-f][1,2,4]triazin-7-yl)-2-cyano-3,4-dihydroxytetrahydrofuran-2-yl)methoxy)(phenoxy)phosphoryl)amino)butanoate], the EC50 in the test on RSV A2 (setting [1]) stood at 36 nM; in the test with HRV16 (setting [2]), 1060 nM; with DENV2 replicon (setting [4]), 62000 nM; with RSV strain A2 (setting [3]) it was 336 nM.

On to `C[C@H](NP(=O)(OC[C@@]1(C#N)O[C@@H](c2ccc3c(N)ncnn23)[C@H](O)[C@@H]1O)Oc1ccccc1)C(=O)OCC(C)(C)C` (stereo partly drawn) [Example 92, (2S)-neopentyl 2-(((((2R,3S,4R,5S)-5-(4-aminopyrrolo[2,1-f][1,2,4]triazin-7-yl)-2-cyano-3,4-dihydroxytetrahydrofuran-2-yl)methoxy)(phenoxy)phosphoryl)amino)propanoate], for which the values for the EC50 with RSV A2 (setting [1]), in the test with HRV16 (setting [2]) and in the test on RSV strain A2 (setting [3]) were 73 nM, 225 nM and 64 nM, respectively.

With `CCC(CC)OC(=O)[C@H](C)NP(=O)(OC[C@@]1(C#N)O[C@@H](c2ccc3c(N)ncnn23)[C@H](O)[C@@H]1O)Oc1ccccc1` (stereo partly drawn) [Example 101, (2S)-pentan-3-yl 2-(((((2R,3S,4R,5S)-5-(4-aminopyrrolo[2,1-f][1,2,4]triazin-7-yl)-2-cyano-3,4-dihydroxytetrahydrofuran-2-yl)methoxy)(phenoxy)phosphoryl)amino)propanoate], the EC50 in the test with RSV A2 (setting [1]) is 1240 nM; in the test with HRV16 (setting [2]), 3130 nM; with DENV2 replicon (setting [4]), > 100000 nM; in the test with RSV strain A2 (setting [3]), 1740 nM.

Take `C[C@H](N[P@](=O)(OC[C@@]1(C#N)O[C@@H](c2ccc3c(N)ncnn23)[C@H](O)[C@@H]1O)Oc1ccccc1)C(=O)OC1CCCCC1` (single isomer, unassigned) [Example 6]: the EC50 is 124 nM in the test with RSV A2 (setting [1]), 227 nM in the test on HRV16 (setting [2]), 2940 nM in the test with DENV2 replicon (setting [4]) and 88 nM in the test with RSV strain A2 (setting [3]).

With `C[C@H](NP(=O)(OC[C@@]1(C#N)O[C@@H](c2ccc3c(N)ncnn23)[C@H](O)[C@@H]1O)Oc1ccccc1)C(=O)OCC1CCCCC1` (single isomer, unassigned) [Example 247], the EC50 in the test on RSV A2 came out at 510 nM; in the test with HRV16 (setting [2]), 317 nM; in the test on DENV2 replicon it was 12000 nM; in the test on RSV strain A2 (setting [3]), 44 nM.

Consider `CCC(CC)COC(=O)[C@@H](C)NP(=O)(OC[C@@]1(C#N)O[C@@H](c2ccc3c(N)ncnn23)[C@H](O)[C@@H]1O)Oc1ccccc1` (stereo partly drawn) [Example 82, (2R)-2-ethylbutyl 2-(((((2R,3S,4R,5S)-5-(4-aminopyrrolo[2,1-f][1,2,4]triazin-7-yl)-2-cyano-3,4-dihydroxytetrahydrofuran-2-yl)methoxy)(phenoxy)phosphoryl)amino)propanoate], for which the EC50 in the test with RSV A2 (setting [1]) was 3000 nM; in the test with HRV16 (setting [2]) it was 9270 nM; with DENV2 replicon (setting [4]) it was > 50000 nM; in the test with RSV strain A2 (setting [3]) it was 2510 nM.

Turning to `CC(C)OC(=O)[C@H](C)NP(=O)(OC[C@@]1(C#N)O[C@@H](c2ccc3c(N)ncnn23)[C@H](O)[C@@H]1O)Oc1ccccc1` (mixture of isomers) [Example 77, Isopropyl ((((2R,3S,4R,5S)-5-(4-aminopyrrolo[2,1-f][1,2,4]triazin-7-yl)-2-cyano-3,4-dihydroxytetrahydrofuran-2-yl)methoxy)(phenoxy)phosphoryl)-L-alaninate], the EC50 in the test on RSV A2 (setting [1]) was determined as 1150 nM; in the test on HRV16 (setting [2]), 1420 nM; with DENV2 replicon (setting [4]), 49800 nM; in the test on RSV strain A2 (setting [3]) it was 464 nM.

As for `C[C@H](N[P@](=O)(OC[C@@]1(C#N)O[C@@H](c2ccc3c(N)ncnn23)[C@H](O)[C@@H]1O)Oc1ccccc1)C(=O)OCC(C)(C)C` [Example 94], the EC50 is 118 nM in the test on RSV A2; 209 nM with HRV16 (H1-HeLa cells, 96 h, 33° C.; read-out: HRV16 HELA EC50); 2340 nM with DENV2 replicon; 100 nM with RSV strain A2.

As to `C[C@H](NP(=O)(OC[C@@]1(C#N)O[C@@H](c2ccc3c(N)ncnn23)[C@H](O)[C@@H]1O)Oc1ccccc1)C(=O)OCCC(C)(C)C` (single isomer, unassigned) [Example 253], the EC50 in the test with RSV A2 is 70 nM; with DENV2 replicon, 2780 nM; in the test with RSV strain A2, 20 nM.
